# Test results taken from ChEMBL document CHEMBL3508693 (2016).
# Columns and labels:
# [1] = % SPP100 (0-168h) recovered in urine following single intravenous dose of [14C] aliskiren hemifumarate at 1 mg.Kg-1 level in marmoset; format: ADME, organism-based, Callithrix jacchus; settings: in vivo
# [2] = Terminal elimination half-life of SPP100 following single oral dose of SPP100 150 mg capsule studied in healthy human; format: ADME, organism-based; settings: plasma
# CYP2C9 = CYP2C9 (Homo sapiens, UniProt P11712); assay: Inhibitory activity of 20 uM SPP100 on 259 Pmoles of cDNA-derived CYP2C9 enzyme in microsome prepared from human lymphoblastoid cell line; format: ADME, microsomes; parameters: conc 20 uM, interact cpd conc 6 uM; settings: probe diclofenac
# CYP2A6 [3] = molecular target: T1, CYP2A6 (Homo sapiens, UniProt P11509); assay: (§1) Inhibitory activity of 20 uM SPP100 on 37 Pmoles of cDNA-derived CYP2A6 enzyme in microsome prepared from human lymphoblastoid cell line; format: ADME, microsomes; parameters: conc 20 uM, interact cpd conc 3 uM; settings: probe coumarine
# T1 sequence (P11509 whole entry): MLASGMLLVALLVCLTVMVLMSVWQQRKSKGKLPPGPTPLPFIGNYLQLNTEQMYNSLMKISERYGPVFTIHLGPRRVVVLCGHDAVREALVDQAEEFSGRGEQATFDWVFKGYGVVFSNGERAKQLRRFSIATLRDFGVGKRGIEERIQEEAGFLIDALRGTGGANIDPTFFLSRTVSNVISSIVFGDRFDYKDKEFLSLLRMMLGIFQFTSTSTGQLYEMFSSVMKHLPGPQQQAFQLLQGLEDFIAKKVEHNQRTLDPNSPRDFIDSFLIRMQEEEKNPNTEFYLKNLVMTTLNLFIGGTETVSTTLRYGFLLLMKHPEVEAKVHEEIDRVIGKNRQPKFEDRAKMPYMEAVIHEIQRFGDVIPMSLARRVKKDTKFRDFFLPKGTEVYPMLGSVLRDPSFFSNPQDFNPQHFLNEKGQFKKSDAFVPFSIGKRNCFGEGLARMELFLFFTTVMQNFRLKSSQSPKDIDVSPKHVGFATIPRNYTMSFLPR
# [4] = %Unchanged aliskiren in faeces following 10 day repeated oral administration of [14C] aliskiren hemifumarate at 100 mg.Kg-1 level studied in rat; format: ADME, organism-based, Albino HAN:WIST, Feces; settings: in vivo, 240 h
# CYP2A6 [5] = molecular target: T1, CYP2A6; assay: as §1; format: ADME, microsomes; parameters: conc 20 uM, interact cpd conc 3 uM; settings: probe coumarine; remark: listed apart in the source
# CYP2A6 [6] = molecular target: T1, CYP2A6; assay: Inhibitory activity of 200 uM SPP100 on 34 Pmoles of cDNA-derived CYP2A6 enzyme in microsome prepared from human lymphoblastoid cell line; format: ADME, microsomes; parameters: conc 200 uM, interact cpd conc 3 uM; settings: probe coumarine
# [7] = Concentration of radioactivity in the kidney medulla following repeated oral administration of [14C] aliskiren hemifumarate at 100 mg.Kg-1 level studied at 24h after 7th dose in rat; format: ADME, organism-based, Albino HAN:WIST, Renal medulla; settings: in vivo
# [8] = Mean excretion of radioactivity (0-96h) in urine and faeces following single oral dose of 100 mg.Kg-1 [14C] aliskiren hemifumarate in rat; format: ADME, organism-based, Albino HAN:WIST, Urine/Feces; settings: in vivo
# [9] = Apparent Vmax value of metabolism of [14C] aliskiren hemifumarate studied in human liver microsome; format: ADME; settings: microsomes
# [10] = Plasma clearance (0-96h) of total radioactivity following oral administration of [14C] aliskiren hemifumarate at 100 mg.Kg-1 level in rat; format: ADME, organism-based, Albino HAN:WIST; settings: in vivo, iv
# [11] = Concentration of radioactivity in the liver following repeated oral administration of [14C] aliskiren hemifumarate at 100 mg.Kg-1 level studied at 24h after 10th dose in rat; format: ADME, organism-based, Albino HAN:WIST; settings: in vivo
# [12] = Concentration of radioactivity in the liver following repeated oral administration of [14C] aliskiren hemifumarate at 100 mg.Kg-1 level studied at 24h after 7th dose in rat; format: ADME, organism-based, Albino HAN:WIST; settings: in vivo
# [13] = Tmax (0-168h) of total radioactivity following single intravenous administration of [14C] aliskiren hemifumarate at 1 mg.Kg-1 level in marmoset; format: ADME, organism-based, Callithrix jacchus, Plasma; settings: in vivo
# [14] = Biliary elimination of aliskiren following single oral dose of [14C] aliskiren hemifumarate at 500 mg.Kg-1 level in mouse; format: ADME, organism-based, TgRasH2, Bile; settings: in vivo
# [15] = % of radioactivity (48h) recovered in faeces of receiver rat following duodenal infusion of radioactivity through bile from donor rat treated with single intravenous administration of 10 mg.Kg-1 [14C] aliskiren hemifumarate; format: ADME, organism-based, HAN:WIST(SPF), Feces; settings: in vivo
# [16] = AUC of [14C] aliskiren hemifumarate following single oral dose of [14C] aliskiren hemifumarate at 500 mg.Kg-1 level in mouse; format: ADME, organism-based, TgRasH2, Plasma; settings: in vivo
# Cytochrome P450 2E1 = Cytochrome P450 2E1 (Homo sapiens, UniProt P05181); assay: Metabolic clearance (ul.min.nmol-1 CYP) of aliskiren hemifumarate for CYP2E1 was determined in human liver microsome incubated with [14C]SPP100 hemifumarate; format: ADME; settings: microsomes
# [17] = Excretion of radioactivity (48-72h) in urine following single oral dose of 500 mg.Kg-1 [14C] aliskiren hemifumarate in mouse; format: ADME, organism-based, TgRasH2; settings: in vivo
# [18] = Excretion of radioactivity (24-48h) in urine following single intravenous dose of 10 mg.Kg-1 [14C] aliskiren hemifumarate in mouse; format: ADME, organism-based, TgRasH2; settings: in vivo
# [19] = t1/2 of aliskiren hemifumarate following 2 week oral dosing of aliskiren hemifumarate at 10 mg.Kg-1 level studied on […] in male Callithrix jacchus; format: ADME, organism-based; settings: marmoset, plasma
# [20] = Tmax of aliskiren hemifumarate following 2 week oral dosing of aliskiren hemifumarate at 10 mg.Kg-1 level studied on […] in male Callithrix jacchus; format: ADME, organism-based; settings: marmoset, plasma
# [21] = Tmax of aliskiren hemifumarate following 8 day once-daily dosing of SPP100B oral solution at 640 mg level studied on day 8 in men; format: ADME, organism-based; settings: male, human, plasma
# [22] = Tmax of aliskiren hemifumarate following 8 day once-daily dosing of SPP100B oral solution at 80 mg level studied on day 8 in men; format: ADME, organism-based; settings: male, human, plasma
# hERG (KCNH2) = hERG (KCNH2) (Homo sapiens, UniProt Q12809); assay: Effects of 10 uM aliskiren hemifumarate on current through cloned hERG channel expressed in human embryonic kidney cell; format: cell-based; parameters: conc 10 uM, dose level Low; settings: HEK293 cells that express cloned hERG channel, read-out: Inhibitory activity
# [23] = Tmax of aliskiren hemifumarate following single dosing of SPP100B oral solution at 160 mg level studied on day 1 in men; format: ADME, organism-based; settings: male, human, plasma
# [24] = Effect of 2 week oral dosing of aliskiren hemifumarate at 50 mg.Kg-1 level on plasma magnesium level in male Callithrix jacchus; format: toxicity, organism-based; settings: marmoset, 336 h
# [25] = Tmax of aliskiren hemifumarate following 2 week oral dosing of aliskiren hemifumarate at 50 mg.Kg-1 level studied on day 14 in male Callithrix jacchus; format: ADME, organism-based; settings: marmoset, plasma
# [26] = Effect of 2 week oral dosing of aliskiren hemifumarate at 100 mg.Kg-1 level on hematological parameter values in male Callithrix jacchus; format: toxicity, organism-based, Plasma; settings: marmoset, in vivo, 336 h
# [27] = AUCspec of aliskiren hemifumarate following 2 week oral dosing of aliskiren hemifumarate at 50 mg.Kg-1 level studied on day 14 in female Callithrix jacchus; format: ADME, organism-based, Plasma; settings: marmoset, in vivo, 336 h
# [28] = AUC (0-24h) of aliskiren hemifumarate following 4 week oral dietary dosing of aliskiren hemifumarate at 2000 mg.Kg-1 level in male mouse; format: ADME, organism-based; settings: CB6F1-TGrasH2, mouse, plasma
# [29] = AUC of aliskiren hemifumarate following 8 day once-daily dosing of SPP100B oral solution at 640 mg level studied on day 8 in men; format: ADME, organism-based; settings: male, human, plasma
# Sequence of hERG (KCNH2) (Q12809 whole entry): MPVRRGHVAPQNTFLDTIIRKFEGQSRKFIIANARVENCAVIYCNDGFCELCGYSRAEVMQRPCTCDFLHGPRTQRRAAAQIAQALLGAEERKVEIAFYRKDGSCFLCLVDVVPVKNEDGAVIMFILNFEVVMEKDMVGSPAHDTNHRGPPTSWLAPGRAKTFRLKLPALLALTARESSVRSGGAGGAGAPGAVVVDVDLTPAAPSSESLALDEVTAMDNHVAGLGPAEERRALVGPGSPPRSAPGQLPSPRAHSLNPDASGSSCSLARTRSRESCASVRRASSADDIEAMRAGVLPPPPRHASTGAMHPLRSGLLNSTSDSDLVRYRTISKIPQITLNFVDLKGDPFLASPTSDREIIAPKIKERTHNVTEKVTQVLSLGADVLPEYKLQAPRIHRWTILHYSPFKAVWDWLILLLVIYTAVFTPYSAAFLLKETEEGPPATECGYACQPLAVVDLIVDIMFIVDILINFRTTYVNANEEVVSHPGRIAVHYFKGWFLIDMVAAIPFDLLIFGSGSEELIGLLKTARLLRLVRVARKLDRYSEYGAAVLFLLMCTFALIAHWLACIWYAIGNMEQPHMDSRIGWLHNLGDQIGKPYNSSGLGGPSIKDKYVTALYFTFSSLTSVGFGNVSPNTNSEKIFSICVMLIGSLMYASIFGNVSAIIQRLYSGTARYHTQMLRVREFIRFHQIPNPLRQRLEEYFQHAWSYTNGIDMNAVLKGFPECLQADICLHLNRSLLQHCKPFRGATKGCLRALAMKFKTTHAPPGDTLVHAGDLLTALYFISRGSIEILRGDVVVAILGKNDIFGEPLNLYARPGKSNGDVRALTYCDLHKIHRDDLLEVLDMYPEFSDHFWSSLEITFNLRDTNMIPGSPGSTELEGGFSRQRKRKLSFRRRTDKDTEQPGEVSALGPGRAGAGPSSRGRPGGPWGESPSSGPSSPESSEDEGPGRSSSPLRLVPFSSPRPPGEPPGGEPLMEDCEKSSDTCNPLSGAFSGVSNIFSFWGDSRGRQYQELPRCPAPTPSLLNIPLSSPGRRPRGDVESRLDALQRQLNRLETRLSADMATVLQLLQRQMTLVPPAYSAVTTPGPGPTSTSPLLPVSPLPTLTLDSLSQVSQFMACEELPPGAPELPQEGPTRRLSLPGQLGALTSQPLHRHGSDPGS
# Sequence of Cytochrome P450 2E1 (P05181 whole entry): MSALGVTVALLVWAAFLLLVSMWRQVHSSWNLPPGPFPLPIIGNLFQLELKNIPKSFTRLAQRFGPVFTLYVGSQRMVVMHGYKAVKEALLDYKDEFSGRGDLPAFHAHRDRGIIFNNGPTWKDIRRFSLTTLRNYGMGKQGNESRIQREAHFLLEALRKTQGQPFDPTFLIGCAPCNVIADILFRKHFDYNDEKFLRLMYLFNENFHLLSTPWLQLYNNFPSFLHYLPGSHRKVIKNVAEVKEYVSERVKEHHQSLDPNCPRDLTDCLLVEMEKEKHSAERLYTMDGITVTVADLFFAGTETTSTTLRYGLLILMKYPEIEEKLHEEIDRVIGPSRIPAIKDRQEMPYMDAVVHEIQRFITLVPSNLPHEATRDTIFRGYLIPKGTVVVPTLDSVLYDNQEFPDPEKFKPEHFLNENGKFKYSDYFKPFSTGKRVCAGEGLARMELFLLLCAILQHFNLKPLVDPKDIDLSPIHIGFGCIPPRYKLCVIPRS
# Sequence of CYP2C9 (P11712 whole entry): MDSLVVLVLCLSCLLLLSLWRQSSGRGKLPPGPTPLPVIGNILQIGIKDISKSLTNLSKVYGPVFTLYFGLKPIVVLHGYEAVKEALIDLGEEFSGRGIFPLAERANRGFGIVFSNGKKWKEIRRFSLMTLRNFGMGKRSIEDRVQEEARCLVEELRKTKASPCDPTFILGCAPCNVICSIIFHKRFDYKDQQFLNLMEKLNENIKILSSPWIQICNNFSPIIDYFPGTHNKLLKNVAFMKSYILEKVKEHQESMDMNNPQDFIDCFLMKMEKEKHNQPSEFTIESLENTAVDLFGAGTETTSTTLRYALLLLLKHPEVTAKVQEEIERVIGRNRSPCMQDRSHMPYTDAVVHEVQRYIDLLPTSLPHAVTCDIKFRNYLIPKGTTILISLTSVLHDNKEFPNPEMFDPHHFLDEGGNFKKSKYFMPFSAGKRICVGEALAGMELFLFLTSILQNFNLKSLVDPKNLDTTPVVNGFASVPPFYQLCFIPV
smiles,measurement,setting,value
COCCCOc1cc(C[C@@H](C[C@H](N)[C@@H](O)C[C@H](C(=O)NCC(C)(C)C(N)=O)C(C)C)C(C)C)ccc1OC,Compound recovery,[1],3%
same,half-life,[2],41 h
same,inhibition at 20 µM,CYP2C9,0.9%
same,inhibition at 20 µM,CYP2A6 [3],2.6%
same,Compound recovery,[4],80%
same,inhibition at 20 µM,CYP2A6 [5],2.6%
same,inhibition at 200 µM,CYP2A6 [6],10.5%
COCCCOc1cc(C[C@@H](C[C@H](N)[C@@H](O)C[C@H](C(=O)NCC([14CH3])([14CH3])C(N)=O)C(C)C)C(C)C)ccc1OC.O=C(O)/C=C/C(=O)O,Radiolabel recovery,[7],OUTCOME = Detected
same,Radiolabel recovery,[8],95.1%
same,Vmax,[9],1807.6 pmol·min/mg
same,Plasma clearance,[10],1.28 L·h/kg
same,Radiolabel recovery,[11],OUTCOME = Detected
same,Radiolabel recovery,[12],OUTCOME = Detected
same,Tmax,[13],4.98 min
same,Radiolabel recovery,[14],"OUTCOME = Observed, VALUE = Elimination of aliskiren occurred mainly via the biliary or faecal route"
same,Radiolabel recovery,[15],26.6%
same,AUC,[16],18.3 µM·h
same,CL,Cytochrome P450 2E1,1.4 µL·min/nmol
same,Radiolabel recovery,[17],0.34%
same,Radiolabel recovery,[18],9.49%
COCCCOc1cc(C[C@@H](C[C@H](N)[C@@H](O)C[C@H](C(=O)NCC(C)(C)C(N)=O)C(C)C)C(C)C)ccc1OC.COCCCOc1cc(C[C@@H](C[C@H](N)[C@@H](O)C[C@H](C(=O)NCC(C)(C)C(N)=O)C(C)C)C(C)C)ccc1OC.O=C(O)/C=C/C(=O)O [ALISKIREN FUMARATE],half-life,[19],5.63 h
same,Tmax,[20],2 h
same,Tmax,[21],3.2 h
same,Tmax,[22],1.8 h
same,inhibition at 10 µM,hERG (KCNH2),1.4%
same,Tmax,[23],2.7 h
same,Plasma magnesium_CHANGE_BY,[24],130%
same,Tmax,[25],2 h
same,Change in hematology,[26],OUTCOME = Hematological parameter values did not differ from control values. No animals died during the study.
same,AUC normalised,[27],2.18 ((ug.h.ml-1)/(mg/kg)
same,AUC(0-t) at 24 h,[28],7720 ng·h/mL
same,AUC at 192 h,[29],2970 ng·h/mL
